The values that follow come from PMC12217544 (Scientific Reports, 2025).

≈ marks a conversion by molar mass, not a printed value.

Data set [1] relates to A/Puerto Rico/8/1934 H1N1. As to conditions: A/Puerto Rico/8/1934 H1N1, quantitative real-time PCR; ref [75]; cited from earlier work.
Data set [2] is described as follows: in vitro. As to conditions: African green monkey, CC50, Vero E6 cells, crystal violet, 3 days.
For data set [3], the system named is Vero E6 cells. As to conditions: MTT assay, ref [76]; cited from earlier work. On the technique in general: Tetrazolium assays rely on reduction of a dye to a coloured formazan, in cell work by metabolically active cells.
In data set [4] the test system is A549 cells. As to conditions: MTT, ref [75]; cited from earlier work.
Data set [5] has as its system SARS-CoV-2. As to conditions: SARS-CoV-2, Vero E6; ref [76]; cited from earlier work.

Usually CC50 stands for the concentration at which the toxic effect on the cells reaches its halfway point.

On to `Cc1ccc(C(C)C)c(O)c1` [Thymol], for which the “concentration that effectively reduced the viral titer” value in data set [1] was 25 µg/mL. The CC50 in data set [2] was 63.3 µg/mL (≈ 421 µM); in data set [3], 617 µM. Also, in data set [4], the half-maximal cytotoxic concentration was 49.4 µg/mL. Moreover, the “viral inhibition percentage (plaque reduction)” value in data set [5] was 96%.
